Test results published in patent publication US20020137929A1, “1 - (3-heterocyclylphenyl) isothiourea, -isourea, -guanidine and -amidine herbicidal agents” (Intellectual Property Department, BASF Aktiengesellschaft, priority 1998, published 2002).

Key:
ECHCG (Barnyardgrass) [1] = experiment: Postemergence herbicidal evaluation; type: in vivo, Echinochloa crus-galli; conditions: postemergence
Method in brief: (§1)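 Scores (0–9) reflect plant stand, vigor, malformation, size, chlorosis and general appearance relative to control, read 4 to 5 weeks after treatment and averaged where tests were repeated. Application: about 0.0156–0.500 kg/ha sprayed at 40 psi onto two-week seedlings.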

CASOB (Sicklepod) = experiment: Preemergence herbicidal evaluation; type: in vivo, Cassia obtusifolia; conditions: rated 4-5 weeks after treatment
Method in brief: (§2)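 Sown cups got a single aqueous acetone spray of test compound (roughly 0.0156–0.500 kg/ha) before seedlings emerged. Evaluation, 4–5 weeks on, used a 0–9 visual scale covering plant stand, vigor, size, malformation, chlorosis and general appearance compared with controls.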

ZEAMX (Corn, Field) [2] = experiment: Preemergence herbicidal evaluation; type: in vivo, Zea mays; conditions: rated 4-5 weeks after treatment
Method in brief: as §2

[3] = tested on: CHEAL (Lambsquarters, Common); experiment: Postemergence herbicidal evaluation; type: in vivo, Chenopodium album; conditions: postemergence
Method in brief: as §1

ECHCG (Barnyardgrass) [4] = experiment: Preemergence herbicidal evaluation; type: in vivo, Echinochloa crus-galli; conditions: rated 4-5 weeks after treatment
Method in brief: as §2

SETVI (Foxtail, Green) = experiment: Postemergence herbicidal evaluation; type: in vivo, Setaria viridis; conditions: postemergence
Method in brief: as §1

[5] = tested on: GLXMAW (Soybean, Williams); experiment: Preemergence herbicidal evaluation; type: in vivo, Glycine max, (L.) Merr. cv Williams; conditions: rated 4-5 weeks after treatment
Method in brief: as §2

[6] = tested on: IPOHE (Morningglory, Ivyleaf); experiment: Postemergence herbicidal evaluation; type: in vivo, Ipomoea hederacea; conditions: postemergence
Method in brief: as §1

[7] = tested on: IPOHE (Morningglory, Ivyleaf); experiment: Preemergence herbicidal evaluation; type: in vivo, Ipomoea hederacea; conditions: rated 4-5 weeks after treatment
Method in brief: as §2

ZEAMX (Corn, Field) [8] = experiment: Postemergence herbicidal evaluation; type: in vivo, Zea mays; conditions: postemergence
Method in brief: as §1

[9] = tested on: TRZAWR (Wheat, Winter, cv Riband); experiment: Preemergence herbicidal evaluation; type: in vivo, Triticum aestivum; conditions: rated 4-5 weeks after treatment
Method in brief: as §2

ORYSAT (Rice, Tebonnet) = experiment: Postemergence herbicidal evaluation; type: in vivo, Oryza sativa, (L.) Tebonnet; conditions: postemergence
Method in brief: as §1

[10] = tested on: CHEAL (Lambsquarters, Common); experiment: Preemergence herbicidal evaluation; type: in vivo, Chenopodium album; conditions: rated 4-5 weeks after treatment
Method in brief: as §2

ABUTH (Velvetleaf) [11] = experiment: Postemergence herbicidal evaluation; type: in vivo, Abutilon theophrasti; conditions: postemergence
Method in brief: as §1

CYPIR (Rice Flatsedge) = experiment: Postemergence weed control under flooded paddy conditions; type: in vivo, Cyperus iria; conditions: postemergence weeds, 3-4 weeks after treatment
Method in brief: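 Flood-water application, about 0.0313–0.500 kg/ha a.i. in aqueous/acetone 50/50 v/v; water depth 1.5–3 cm throughout. Weeds 3–5 cm, rice 1.5–2.5 leaf. Greenhouse; 0–9 visual rating vs control at 3–4 wk.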

ABUTH (Velvetleaf) [12] = experiment: Preemergence herbicidal evaluation; type: in vivo, Abutilon theophrasti; conditions: rated 4-5 weeks after treatment
Method in brief: as §2

CCOC(=O)CN1C(=O)C(Cc2ccccc2)SC1=Nc1cc(-n2c(=O)cc(C(F)(F)F)n(C)c2=O)c(F)cc1Cl (stereo not drawn) [Compound 24, Ethyl 5-benzyl-2-{{2-chloro-5-[3,6-dihydro-3-methyl-2,6-dioxo-4-(trifluoromethyl)-1(2H)-pyrimidinyl]-4-fluorophenyl}imino}-4-oxo-3-thiazolidineacetate]
ECHCG herbicidal rating (ECHCG (Barnyardgrass) [1]; rate 0.0158 kg/ha): 0.0 | ECHCG herbicidal rating (ECHCG (Barnyardgrass) [1]; rate 0.0315 kg/ha): 0.0 | ECHCG herbicidal rating (ECHCG (Barnyardgrass) [1]; rate 0.0630 kg/ha): 0.0 | CASOB preemergence herbicidal rating (CASOB (Sicklepod); rate 0.0625 kg/ha): 0.0 | CASOB preemergence herbicidal rating (CASOB (Sicklepod); rate 0.1250 kg/ha): 0.0 | CASOB preemergence herbicidal rating (CASOB (Sicklepod); rate 0.2500 kg/ha): 0.0 | ZEAMX preemergence herbicidal rating (ZEAMX (Corn, Field) [2]; rate 0.0625 kg/ha): 0.0 | ZEAMX preemergence herbicidal rating (ZEAMX (Corn, Field) [2]; rate 0.1250 kg/ha): 0.0 | ZEAMX preemergence herbicidal rating (ZEAMX (Corn, Field) [2]; rate 0.2500 kg/ha): 1.0 | CHEAL herbicidal rating ([3]; rate 0.0158 kg/ha): 2.0 | CHEAL herbicidal rating ([3]; rate 0.0315 kg/ha): 4.0 | CHEAL herbicidal rating ([3]; rate 0.0630 kg/ha): 9.0 | ECHCG preemergence herbicidal rating (ECHCG (Barnyardgrass) [4]; rate 0.0625 kg/ha): 0.0 | ECHCG preemergence herbicidal rating (ECHCG (Barnyardgrass) [4]; rate 0.1250 kg/ha): 0.0 | ECHCG preemergence herbicidal rating (ECHCG (Barnyardgrass) [4]; rate 0.2500 kg/ha): 0.0 | SETVI herbicidal rating (SETVI (Foxtail, Green); rate 0.0158 kg/ha): 0.0 | SETVI herbicidal rating (SETVI (Foxtail, Green); rate 0.0315 kg/ha): 0.0 | SETVI herbicidal rating (SETVI (Foxtail, Green); rate 0.0630 kg/ha): 0.0 | GLXMAW preemergence herbicidal rating ([5]; rate 0.0625 kg/ha): 0.0 | GLXMAW preemergence herbicidal rating ([5]; rate 0.1250 kg/ha): 0.0 | GLXMAW preemergence herbicidal rating ([5]; rate 0.2500 kg/ha): 0.0 | IPOHE herbicidal rating ([6]; rate 0.0158 kg/ha): 2.0 | IPOHE herbicidal rating ([6]; rate 0.0315 kg/ha): 9.0 | IPOHE preemergence herbicidal rating ([7]; rate 0.0625 kg/ha): 0.0 | IPOHE preemergence herbicidal rating ([7]; rate 0.1250 kg/ha): 0.0 | IPOHE preemergence herbicidal rating ([7]; rate 0.2500 kg/ha): 0.0 | ZEAMX herbicidal rating (ZEAMX (Corn, Field) [8]; rate 0.0158 kg/ha): 4.0 | ZEAMX herbicidal rating (ZEAMX (Corn, Field) [8]; rate 0.0315 kg/ha): 4.5 | ZEAMX herbicidal rating (ZEAMX (Corn, Field) [8]; rate 0.0630 kg/ha): 5.5 | TRZAWR preemergence herbicidal rating ([9]; rate 0.0625 kg/ha): 0.0 | TRZAWR preemergence herbicidal rating ([9]; rate 0.1250 kg/ha): 0.0 | TRZAWR preemergence herbicidal rating ([9]; rate 0.2500 kg/ha): 0.0 | ORYSAT herbicidal rating (ORYSAT (Rice, Tebonnet); rate 0.0158 kg/ha): 2.5 | ORYSAT herbicidal rating (ORYSAT (Rice, Tebonnet); rate 0.0315 kg/ha): 3.0 | ORYSAT herbicidal rating (ORYSAT (Rice, Tebonnet); rate 0.0630 kg/ha): 3.0 | CHEAL preemergence herbicidal rating ([10]; rate 0.0625 kg/ha): 9.0 | CHEAL preemergence herbicidal rating ([10]; rate 0.1250 kg/ha): 9.0 | CHEAL preemergence herbicidal rating ([10]; rate 0.2500 kg/ha): 9.0 | ABUTH herbicidal rating (ABUTH (Velvetleaf) [11]; rate 0.0158 kg/ha): 9.0 | ABUTH herbicidal rating (ABUTH (Velvetleaf) [11]; rate 0.0315 kg/ha): 9.0 | ABUTH herbicidal rating (ABUTH (Velvetleaf) [11]; rate 0.0630 kg/ha): 9.0 | Herbicidal rating CYPIR (CYPIR (Rice Flatsedge); rate 0.0313 kg/ha): 0.0 | Herbicidal rating CYPIR (CYPIR (Rice Flatsedge); rate 0.0625 kg/ha): 0.0 | Herbicidal rating CYPIR (CYPIR (Rice Flatsedge); rate 0.1250 kg/ha): 0.0 | Herbicidal rating CYPIR (CYPIR (Rice Flatsedge); rate 0.2500 kg/ha): 0.0 | ABUTH preemergence herbicidal rating (ABUTH (Velvetleaf) [12]; rate 0.0625 kg/ha): 4.0 | ABUTH preemergence herbicidal rating (ABUTH (Velvetleaf) [12]; rate 0.1250 kg/ha): 9.0 | ABUTH preemergence herbicidal rating (ABUTH (Velvetleaf) [12]; rate 0.2500 kg/ha): 9.0
